The text below walks through data of patent publication US20100137394A1, “PYRAZOLE INHIBITORS OF WNT SIGNALING” (Grenentech, Inc., priority 2007, published 2010).

This assay deals with Wnt pathway signaling. Put plainly: Wnt Assay (Super8xTopflash reporter assay). The assay is classed as cell-based. Particulars: 10T1/2 Super8xTopflash reporter cell line, Wnt3a in medium, luciferase signal read after 20-24 h; read-out: IC50, inhibition of Wnt pathway signaling activity. On the procedure: 10T1/2 Super8xTopflash reporter cell line was generated by stable transfection of a Super8xTopflash reporter plasmid containing 8 tandem repeats of TCF4 binding sites upstream of Luciferase gene. Cells were seeded at 20 K/well density (in normal growth medium with 10% FBS and 0.4 mg/ml G418) in white 96-well plates with clear bottom (BD Falcon Microtest Optilux plate, Ref. 353947) and grown for 20-24 hours. Fesh growth medium was prepared without G418 and with appropriate Wnt3a concentration (concentration that gave 40-50% of maximum activation based on the dose-response curve performed for each new batch of protein; typically ˜0.1 ug/ml).
Old medium was removed from the 96-well plate, which was gently blotted on paper towel, then all relevant wells were replenished with fresh medium containing Wnt (100 ul/well).
The wells with highest compound concentrations (usually 10 or 30 uM) were filled separately with 150 ul of prepared medium containing both Wnt3a and the test compounds. Using a multichannel pipetman, 50 ul was drawn from these wells and dispensed and mixed gently into the next row of wells to achieve 1:3 dilution of compounds. […]
After 20-24 h the cells were lysed and the luciferase signal was read using Perkin Elmer luclite assay system, Cat. #6016911). […] Approximately 15 min later the plates were read on a TopCount machine.
(In general: A reporter such as luciferase makes a cellular process visible.)

As to `COc1ccc(CC(=O)N2CCC(c3ccc(NS(C)(=O)=O)cc3)=N2)cc1OC` [compound 12], the IC50 – broadly, the concentration that inhibits the measured activity by half – turned out to be 0.218 µM.
